Where a name gives a salt, the structure may show the parent alone.
Tested on: PRKACA-PRKAR2A interaction (SmBiT-PRKACA / LgBiT-PRKAR2A), protein kinase A
Set-up: NanoLuc complementation counter-screen in cell extract, PRKACA with PRKAR2A, loss of luminescence, detects NanoLuc interference
Details: 0.5 h, 20 µM; inhibitor

| SMILES | Inh (PKA) |
| --- | --- |
| CN1CCCCC1Cn1cc(C(=O)c2cc([N+](=O)[O-])ccc2I)c2ccccc21 (stereo not drawn) [UM0141913:01, AM1241] | 12.3% |

Same assay, conditions: counter-screen for NanoLuc interference, 0.5 h, 20 µM, inhibitor, Inh (PKA)

| SMILES | Inh (PKA) |
| --- | --- |
| COc1cc(Nc2ncc(F)c(Nc3ccc4c(n3)NC(=O)C(C)(C)O4)n2)cc(OC)c1OC [UM0141915:01, R406 (free base)] | 51.96% |
| COC(=O)N[C@H](C(=O)N[C@@H](Cc1ccccc1)[C@@H](O)CN(Cc1ccc(-c2ccccn2)cc1)NC(=O)[C@@H](NC(=O)OC)C(C)(C)C)C(C)(C)C [UM0141949:01, Atazanavir] | 2.849% |
| CCOC(=O)[C@@H](N)CCC(=O)N[C@@H](CSCc1ccccc1)C(=O)N[C@@H](C(=O)OCC)c1ccccc1 [UM0141959:01, Ezatiostat] | 2.198% |

Same assay, conditions: counter-screen for NanoLuc interference; 0.5 h, 20 µM; inhibitor

| SMILES | Inh (PKA) |
| --- | --- |
| Cc1cc([C@@H](C)Nc2ccccc2C(=O)O)c2nc(N3CCOCC3)cc(=O)n2c1 [UM0141893:01, AZD6482] | 55.75% |
| O=C(NCc1ccccc1)c1csc(Nc2ccncn2)n1 [UM0141894:01, Thiazovivin] | -0.9736% |
| CC(C)(C)Cn1c(N)nc2ccc(-c3[nH]c(C(C)(C)C)nc3-c3ccc(F)cc3)nc21 [UM0141895:01, LY2228820] | 34.84% |
| O=C(NC[C@H](O)CO)c1ccncc1Nc1ccc(I)cc1F [UM0141896:01, Pimasertib (AS-703026)] | 20.8% |
| Cc1cccc(-c2[nH]c(C(C)(C)C)nc2-c2ccc3nccnc3c2)n1 [UM0141897:01, SB525334] | 4.915% |
| CC1=C(C(=O)Nc2cc3cn[nH]c3cc2F)C(c2ccc(C(F)(F)F)cc2)CC(=O)N1 (stereo not drawn) [UM0141898:01, GSK429286A] | 8.844% |
| Clc1ccc(C2(c3ccc(-c4cn[nH]c4)cc3)CCNCC2)cc1 [UM0141900:01, AT7867] | 29.71% |
| CCOc1ccn(-c2ccc(F)cc2)c(=O)c1C(=O)Nc1ccc(Oc2ccnc(N)c2Cl)c(F)c1 [UM0141902:01, BMS-777607] | 68.15% |
| O=C(NOCC(O)CO)c1cc(Br)c(F)c(F)c1Nc1ccc(I)cc1F (stereo not drawn) [UM0141903:01, PD318088] | 48.65% |
| CCOC(=O)c1ccc(C#Cc2ccc3c(c2)C(C)(C)CCS3)nc1 [UM0141904:01, Tazarotene] | 17.58% |
| O=C(NC1CCNCC1)c1n[nH]cc1NC(=O)c1c(Cl)cccc1Cl [UM0141905:01, AT7519] | 0.5831% |
| O=S(=O)(c1cccc2cnccc12)N1CCCNCC1 [UM0141906:01, Fasudil (HA-1077) HCl] | 33.96% |
| CCCNC(=O)Nc1ccc(Oc2ncnc3cc(OC)c(OC)cc23)cc1Cl [UM0141907:01, KRN 633] | 0.03165% |
| O=C(O)c1cc(/N=N/c2ccc(S(=O)(=O)Nc3ccccn3)cc2)ccc1O [UM0141908:01, Sulfasalazine] | 56.84% |
| Nc1ccn(C[C@@H](CO)OCP(=O)(O)O)c(=O)n1 [UM0141909:01, Cidofovir] | -0.4944% |
| CN(C)Cc1cccc(N/C(=C2\C(=O)Nc3cc(C(N)=O)ccc32)c2ccccc2)c1 [UM0141912:01, BIX 02188] | 13.5% |
| CCOc1ccc(Cc2cc([C@@H]3O[C@H](CO)[C@@H](O)[C@H](O)[C@H]3O)ccc2Cl)cc1 [UM0141914:01, Dapagliflozin] | 0.9919% |
| CCCCCCCCCCCCc1ccc(S(=O)(=O)Nc2nncs2)cc1 [UM0141916:01, PHT-427] | 11.59% |
| Cc1nc(-c2ccc(OCC(C)C)c(C#N)c2)sc1C(=O)O [UM0141917:01, Febuxostat] | 17.81% |
| COc1ccc2cc(-c3nc(-c4ccc([S+](C)[O-])cc4)[nH]c3-c3ccncc3)ccc2c1 (stereo not drawn) [UM0141919:01, Tie2 kinase inhibitor] | 68.85% |
| CN1C/C(=C/c2ccc(B(O)O)cc2)C(=O)/C(=C\c2ccc(B(O)O)cc2)C1 [UM0141922:01, AM 114] | 1.277% |
| NCCCC[C@@H]1NC(=O)[C@@H](Cc2ccccc2)NC(=O)[C@H](CC(=O)O)NC(=O)CNC(=O)[C@H](CCCN=C(N)N)NC1=O [UM0141923:01, Cyclo (-RGDfK)] | -1.971% |
| COC(=O)C[C@H](NC(=O)[C@@H](NC(=O)c1ccc2ccccc2n1)C(C)C)C(=O)COc1c(F)cccc1F [UM0141924:01, Q-VD(OMe)-OPh] | 13.3% |
| CO[C@H]1C[C@@H]2CC[C@@H](C)[C@@](O)(O2)C(=O)C(=O)N2CCCC[C@H]2C(=O)O[C@H]([C@H](C)C[C@@H]2CC[C@@H](O)[C@H](OC)C2)CC(=O)[C@H](C)/C=C(\C)[C@@H](O)[C@@H](OC)C(=O)[C@H](C)C[C@H](C)/C=C/C=C/C=C/1C [UM0141925:01, Rapamycin (Sirolimus)] | 2.249% |
| CCOC(=O)C1=C(N)Oc2ccc(Br)cc2[C@H]1[C@H](C#N)C(=O)OCC [UM0141926:01, HA14-1] | 18.52% |

| SMILES | Inh (PKA) |
| --- | --- |
| CO[C@H]1C[C@@H]2CC[C@@H](C)[C@@](O)(O2)C(=O)C(=O)N2CCCC[C@H]2C(=O)O[C@H]([C@H](C)C[C@@H]2CC[C@@H](OCCO)[C@H](OC)C2)CC(=O)[C@H](C)/C=C(\C)[C@@H](O)[C@@H](OC)C(=O)[C@H](C)C[C@H](C)/C=C/C=C/C=C/1C [UM0141927:01, Everolimus (RAD001)] | 0.7572% |
| CC(NC(=O)[C@H](Cc1ccccc1)NC(=O)OCc1ccccc1)C(=O)CF (stereo partly drawn) [UM0141928:01, Z-FA-FMK] | 4.07% |
| Nc1ccccc1NC(=O)c1ccc(CNC(=O)OCc2cccnc2)cc1 [UM0141929:01, Entinostat (MS-275,SNDX-275)] | 3.043% |
| CC(C)CCCCC(=O)N[C@@H](CO)C(=O)N[C@@H](CC(C)C)C(=O)[C@@]1(CO)CO1 [UM0141930:01, Dihydroeponemycin] | 3.421% |
| C/C=C1\NC(=O)[C@H]2CSSCC/C=C/[C@H](CC(=O)N[C@H](C(C)C)C(=O)N2)OC(=O)[C@H](C(C)C)NC1=O [UM0141931:01, Romidepsin (FK228, depsipeptide)] | 2.202% |
| CN(C(=O)c1cc2ccccc2cc1C(=O)C(c1cccc2ccccc12)P(=O)(O)O)C1CCN(C(=O)c2ccccc2)CC1 (stereo not drawn) [UM0141932:01, Cathepsin G Inhibitor I] | 16.06% |
| C=CCc1cccc(/C=N/NC(=O)CN2CCN(Cc3ccccc3)CC2)c1O [UM0141933:01, PAC-1] | 9.934% |
| CC(C)C[C@H](NC(=O)[C@H](CC(C)C)NC(=O)[C@H](CC(C)C)NC(=O)OCc1ccccc1)B(O)O [UM0141934:01, MG-262] | 2.364% |
| CN([C@@H](Cc1ccc(OS(=O)(=O)c2cccc3cnccc23)cc1)C(=O)N1CCN(c2ccccc2)CC1)S(=O)(=O)c1cccc2cnccc12 [UM0141935:01, KN-62] | 9.099% |
| C[C@@]1(F)[C@H](O)[C@@H](CO)O[C@H]1n1ccc(=O)[nH]c1=O [UM0141938:01, PSI-6206] | 1.416% |
| CC(C)[C@H](O)C(=O)N[C@@H](C)C(=O)N[C@@H]1C(=O)N(C)CCc2ccccc21 [UM0141939:01, Semagacestat (LY450139)] | -0.02723% |
| C[C@@H]1O[C@@H](CC(=O)O)CC2=C1C(=O)c1c(O)cccc1C2=O [UM0141940:01, Nanaomycin A] | 18.84% |
| COc1cc2ncnc(Nc3cccc(Br)c3)c2cc1OC [UM0141943:01, PD153035 hydrochloride] | 18.98% |
| CC(C)c1nc(CN(C)C(=O)N[C@H](C(=O)N[C@@H](Cc2ccccc2)C[C@H](O)[C@H](Cc2ccccc2)NC(=O)OCc2cncs2)C(C)C)cs1 [UM0141947:01, Ritonavir] | 6.592% |
| Cc1cccc(C)c1OCC(=O)N[C@@H](Cc1ccccc1)[C@@H](O)C[C@H](Cc1ccccc1)NC(=O)[C@H](C(C)C)N1CCCNC1=O [UM0141948:01, Lopinavir] | 17.52% |
| CC(C)CN(C[C@@H](O)[C@H](Cc1ccccc1)NC(=O)O[C@H]1CO[C@H]2OCC[C@H]21)S(=O)(=O)c1ccc(N)cc1 [UM0141950:01, Darunavir] | 4.833% |
| COc1cc2c(cc1OC)CN(CCc1ccc(NC(=O)c3cc(OC)c(OC)cc3NC(=O)c3cnc4ccccc4c3)cc1)CC2 [UM0141951:01, Tariquidar] | 12.46% |
| N#CSc1cc(SC#N)c(N)nc1N [UM0141952:01, PR-619] | 19.82% |
| COc1ccc(CCC(=O)Nc2nc3ccc(Cl)cc3s2)cc1OC [UM0141953:01, KY 02111] | 9.326% |
| COc1ccc(-c2ccc3c(N4CCOC[C@@H]4C)nc(N4CCOC[C@@H]4C)nc3n2)cc1CO [UM0141954:01, AZD8055] | 6.662% |
| CC(C)(C)n1nc(-c2ccc(Cl)cc2)c2c(N)ncnc21 [UM0141956:01, PP 2 (AG 1879)] | 33.15% |
| O=C(NCCCNc1nc(Nc2cccc(NC(=O)N3CCCC3)c2)ncc1I)c1cccs1 [UM0141957:01, BX795] | 37.99% |
| O=C(Nc1ccc(CN2CCOCC2)cc1)c1ccc(-c2cccc(Cl)c2)o1 [UM0141958:01, CID 2011756] | 20.99% |
| N#Cc1c(Oc2ccc(F)c(NC(=O)Cc3cccc(C(F)(F)F)c3)c2)ccc2nc(NC(=O)C3CC3)sc12 [UM0141960:01, TAK-632] | 4.577% |
| CC(=O)[C@]1(N)Cc2c(O)c3c(c(O)c2[C@@H](O[C@H]2C[C@H](O)[C@H](O)CO2)C1)C(=O)c1ccccc1C3=O [UM0141961:01, Amrubicin] | 25.46% |
